For series [1], the system named is uterine horns and endometriotic lesions. The series can be described thus: H&E histopathology of uterine horns and lesions from treated mice. The class given is in vivo, C57BL/6 mice. As for the experimental part:
A randomly selected subset of the collected lesions and uterine horns were processed for staining with hematoxylin and eosin (H&E) (pathologically confirmed endometriotic lesions from PBS and HCQ-treated mice, n=15 each; uterine horns derived from PBS-treated mice, n=10; and uterine horns derived from HCQ-treated mice, n=10).
Five-week-old C57BL/6 female mice were purchased from Jackson laboratories. All animals were maintained under standard 12 h photoperiod; food and water were available ad libitum throughout the study. All experimental procedures and animal care were approved by the Animal Care and Use Committee (IACUC) of the University of South Florida (R IS00000101), in accordance with the principles described in the Guide for the Care and Use of Laboratory Animals of the National Institutes of Health. All surgical procedures were performed under aseptic conditions using anesthesia. The mouse model of endometriosis was performed as previously described. […] Lesions were measured using a caliper. Volume of the lesions was calculated according to the formula: 4/3πr^2R.
Collected samples were immediately preserved in 10% neutral buffered formalin at the animal facility. […] Lesions were analyzed from independent blocks. […]

The next series relates to endometriotic lesions. The series can be described thus: Effect of hydroxychloroquine on lesion formation in mouse endometriosis model (Example 3). It is filed as in vivo, C57BL/6 mice. As to conditions: 60 mg/kg intraperitoneal, lesions evaluated 14 days after start; P between groups 0.0019. As for the experimental part:
To determine the effect of hydroxychloroquine on endometriosis in vivo, mice (6-8 week old C57BL/6 background mice) were fed on a mouse diet and given ad libitum access to water and kept on a light/dark cycle of 12/12 h under controlled conditions. Prior to any invasive procedure, the mice were anesthetized using Isofluorane (initial vaporizer flow rate of 3-5%) implemented once prior to an invasive procedure. The mice were also given Ketoprofen (10 mg/kg) subcutaneously as a post-operative analgesic agent for the first 24 hours and then as needed. All surgical procedures were performed under sterile conditions. Mice were ordered at 3-5 weeks of age to receive them and allow them to acclimate to the housing conditions prior to the start of the investigation when the mice are about 6 to about 8 weeks of age. […] The fragments were suspended in about 0.6 ml of phosphate buffered saline and were injected with an 18-gauge needle through the abdominal wall below the umbilicus into the peritoneal cavity of recipient mice with a ratio of one donor to two recipients (equivalent quantities). […] Lesions were identified, removed, and analyzed. […]

With `CCN(CCO)CCCC(C)Nc1ccnc2cc(Cl)ccc12` (stereo not drawn) [HCQ, hydroxychloroquine], the “uterine horns with irregular epithelium pattern” value in series [1] (uterine horns from HCQ-treated mice, 60 mg/kg) was 5 out of 10. For the same compound, the “histology of ectopic growths (glandular components)” value in series [1] (vs PBS, p=0.03 Fisher's exact test) was “did not histologically resemble endometriotic lesions”. For the same compound, the “effect on endometriotic lesions (FIG. 5)” value with endometriotic lesions is reported as “effectiveness”.

The values are drawn from patent US10695341B2, “Compositions and methods for treating endometriosis” (UNIVERSITY OF SOUTH FLORIDA, priority 2014, dated 2020).
